{"source": "paper PMC5218480", "about": "(PLoS ONE, 2017)", "tested_on": "MV-4-11 cells", "assay": "Gene expression microarray analysis (Affymetrix PrimeView) and GSEA", "format": "cell-based, human", "design": "RFU PODN (11730768_x_at) / Fold change /veh PODN (11730768_x_at) / RFU LINC00158 (11744669_a_at) / Fold change /veh LINC00158 (11744669_a_at) / RFU DUSP10 (11751237_a_at) / Fold change /veh DUSP10 (11751237_a_at) / RFU ID3 (11757404_x_at) / Fold change /veh ID3 (11757404_x_at) / RFU PLEKHG5 (11737974_s_at) / Fold change /veh PLEKHG5 (11737974_s_at) / RFU LRRC4B (11730491_at) / Fold change /veh LRRC4B (11730491_at) / RFU GIMAP4 (11747438_a_at) / Fold change /veh GIMAP4 (11747438_a_at) / RFU KRT8 (11758183_x_at) / Fold change /veh KRT8 (11758183_x_at) / RFU CNN1 (11734310_a_at) / Fold change /veh CNN1 (11734310_a_at) / RFU VPS37D (11726825_at) / Fold change /veh VPS37D (11726825_at) / RFU C10orf10 (11716522_x_at) / Fold change /veh C10orf10 (11716522_x_at) / RFU KIR2DL2 /// KIR2DL4 /// KIR2DL5A /// KIR2DL5B /// KIR2DS1 /// KIR2DS2 /// KIR2DS3 /// KIR2DS4 /// KIR3DL3 /// KIR3DL3 /// KIR3DS1 (11738374_at) / Fold change /veh KIR2DL2 /// KIR2DL4 /// KIR2DL5A /// KIR2DL5B /// KIR2DS1 /// KIR2DS2 /// KIR2DS3 /// KIR2DS4 /// KIR3DL3 /// KIR3DL3 /// KIR3DS1 (11738374_at) / RFU C1QL1 (11718748_at) / Fold change /veh C1QL1 (11718748_at) / RFU TMPRSS4 (11747572_a_at) / Fold change /veh TMPRSS4 (11747572_a_at) / RFU HAMP (11756126_x_at) / Fold change /veh HAMP (11756126_x_at) / RFU RNFT2 (11725882_a_at) / Fold change /veh RNFT2 (11725882_a_at) / RFU NR4A2 (11747474_a_at) / Fold change /veh NR4A2 (11747474_a_at) / RFU ABCC12 (11746883_a_at) / Fold change /veh ABCC12 (11746883_a_at) / RFU TMEM136 (11760407_x_at) / Fold change /veh TMEM136 (11760407_x_at) / RFU CLDN22 /// WWC2 (11732394_at) / Fold change /veh CLDN22 /// WWC2 (11732394_at) / RFU HLA-DPB1 (11760878_x_at) / Fold change /veh HLA-DPB1 (11760878_x_at) / RFU SPINT1 (11716480_a_at) / Fold change /veh SPINT1 (11716480_a_at) / RFU GAP43 (11754022_s_at) / Fold change /veh GAP43 (11754022_s_at) / RFU A4GNT (11735810_at) / Fold change /veh A4GNT (11735810_at) / RFU PRB3 (11715151_x_at) / Fold change /veh PRB3 (11715151_x_at) / RFU TUBB4B (11761932_at) / Fold change /veh TUBB4B (11761932_at) / RFU CAPN14 (11732068_a_at) / Fold change /veh CAPN14 (11732068_a_at) / RFU TMCC2 (11721928_a_at) / Fold change /veh TMCC2 (11721928_a_at) / RFU IRGQ (11745062_a_at) / Fold change /veh IRGQ (11745062_a_at) / RFU FAM174B (11720279_a_at) / Fold change /veh FAM174B (11720279_a_at) / RFU TMPRSS4 (11748680_a_at) / Fold change /veh TMPRSS4 (11748680_a_at) / RFU FAM212B (11763350_a_at) / Fold change /veh FAM212B (11763350_a_at) / RFU PLEKHG5 (11743358_a_at) / Fold change /veh PLEKHG5 (11743358_a_at) / RFU ZSCAN30 (11745921_a_at) / Fold change /veh ZSCAN30 (11745921_a_at) / RFU CMKLR1 (11741424_a_at) / Fold change /veh CMKLR1 (11741424_a_at) / RFU LOC101060620 /// MAPK8IP1 (11723275_at) / Fold change /veh LOC101060620 /// MAPK8IP1 (11723275_at) / RFU SPTSSB (11747773_x_at) / Fold change /veh SPTSSB (11747773_x_at) / RFU PRSS12 (11739890_at) / Fold change /veh PRSS12 (11739890_at) / RFU BIN1 (11741810_x_at) / Fold change /veh BIN1 (11741810_x_at) / RFU WNT11 (11732464_a_at) / Fold change /veh WNT11 (11732464_a_at) / RFU C10orf10 (11716521_a_at) / Fold change /veh C10orf10 (11716521_a_at) / RFU C5orf56 (11738089_at) / Fold change /veh C5orf56 (11738089_at) / RFU CYB561 (11721691_x_at) / Fold change /veh CYB561 (11721691_x_at) / RFU ANKRD19P (11752326_a_at) / Fold change /veh ANKRD19P (11752326_a_at) / RFU OR2T12 /// OR2T33 /// OR2T8 (11738714_s_at) / Fold change /veh OR2T12 /// OR2T33 /// OR2T8 (11738714_s_at) / RFU VCAN (11748164_a_at) / Fold change /veh VCAN (11748164_a_at) / RFU JSRP1 (11732532_at) / Fold change /veh JSRP1 (11732532_at) / RFU KRTAP10-11 (11738290_x_at) / Fold change /veh KRTAP10-11 (11738290_x_at) / RFU MYO3A (11730013_a_at) / Fold change /veh MYO3A (11730013_a_at) / RFU EBF3 (11725865_a_at) / Fold change /veh EBF3 (11725865_a_at) / RFU CAMK2N1 (11719241_x_at) / Fold change /veh CAMK2N1 (11719241_x_at) / RFU C5orf56 (11738088_a_at) / Fold change /veh C5orf56 (11738088_a_at) / RFU OLFML3 (11715873_a_at) / Fold change /veh OLFML3 (11715873_a_at) / RFU LOC100653217 /// NTM (11731650_a_at) / Fold change /veh LOC100653217 /// NTM (11731650_a_at) / RFU MAPK11 (11762145_a_at) / Fold change /veh MAPK11 (11762145_a_at) / RFU FIZ1 (11724087_x_at) / Fold change /veh FIZ1 (11724087_x_at) / RFU OASL (11726364_x_at) / Fold change /veh OASL (11726364_x_at) / RFU SOX15 (11748057_x_at) / Fold change /veh SOX15 (11748057_x_at) / RFU CD79A (11719716_a_at) / Fold change /veh CD79A (11719716_a_at) / RFU HIST1H1D (11736915_at) / Fold change /veh HIST1H1D (11736915_at) / RFU CASKIN2 (11723855_a_at) / Fold change /veh CASKIN2 (11723855_a_at) / RFU LOC730098 (11760151_x_at) / Fold change /veh LOC730098 (11760151_x_at) / RFU OR4N2 (11742367_at) / Fold change /veh OR4N2 (11742367_at) / RFU PRRT2 (11749266_a_at) / Fold change /veh PRRT2 (11749266_a_at) / RFU SNX32 (11753110_a_at) / Fold change /veh SNX32 (11753110_a_at) / RFU CDHR5 (11726645_a_at) / Fold change /veh CDHR5 (11726645_a_at) / RFU RCAN1 (11760418_a_at) / Fold change /veh RCAN1 (11760418_a_at) / RFU FAM167A (11723789_a_at) / Fold change /veh FAM167A (11723789_a_at) / RFU FAM26E (11764081_at) / Fold change /veh FAM26E (11764081_at) / RFU ISYNA1 (11749810_s_at) / Fold change /veh ISYNA1 (11749810_s_at) / RFU ACY1 (11761880_at) / Fold change /veh ACY1 (11761880_at) / RFU 11764098_at / Fold change /veh 11764098_at / RFU SAMD14 (11745864_x_at) / Fold change /veh SAMD14 (11745864_x_at) / RFU NPB (11741838_a_at) / Fold change /veh NPB (11741838_a_at) / RFU TMPRSS6 (11731388_a_at) / Fold change /veh TMPRSS6 (11731388_a_at) / RFU KRTAP10-2 (11738614_at) / Fold change /veh KRTAP10-2 (11738614_at) / RFU ARHGAP8 /// PRR5-ARHGAP8 (11727945_x_at) / Fold change /veh ARHGAP8 /// PRR5-ARHGAP8 (11727945_x_at) / RFU KRTAP5-7 /// NADSYN1 (11734609_at) / Fold change /veh KRTAP5-7 /// NADSYN1 (11734609_at) / RFU RASL12 (11751679_a_at) / Fold change /veh RASL12 (11751679_a_at) / RFU CDKN2B (11736163_a_at) / Fold change /veh CDKN2B (11736163_a_at) / RFU PRF1 (11729649_at) / Fold change /veh PRF1 (11729649_at) / RFU, ZNF638 /// ZNF638-IT1 / Fold change vs veh, ZNF638 /// ZNF638-IT1 / RFU, PANK3 / Fold change vs veh, PANK3 / RFU, SH3YL1 / Fold change vs veh, SH3YL1 / RFU, ZEB2 / Fold change vs veh, ZEB2 / RFU, NRIP1 / Fold change vs veh, NRIP1 / RFU, PTTG1IP / Fold change vs veh, PTTG1IP / RFU, CAPN2 / Fold change vs veh, CAPN2 / RFU, MED14 / Fold change vs veh, MED14 / RFU, SNORA58 / Fold change vs veh, SNORA58 / RFU, C1orf63 / Fold change vs veh, C1orf63 / RFU, LRRFIP1 / Fold change vs veh, LRRFIP1 / RFU, NDUFAF7 / Fold change vs veh, NDUFAF7 / RFU, SLC12A2 / Fold change vs veh, SLC12A2 / RFU, IBTK / Fold change vs veh, IBTK / RFU, ESF1 / Fold change vs veh, ESF1 / Fold change vs veh, TMEM50B / RFU, TAOK1 / Fold change vs veh, TAOK1 / RFU, ACBD3 / Fold change vs veh, ACBD3 / RFU, TMA16 / Fold change vs veh, TMA16 / RFU, RWDD3 / Fold change vs veh, RWDD3 / RFU, BCAT1 / Fold change vs veh, BCAT1 / RFU, EDEM3 / Fold change vs veh, EDEM3 / RFU, TMEM33 / Fold change vs veh, TMEM33 / RFU, WDR75 / Fold change vs veh, WDR75 / RFU, AHCTF1 / Fold change vs veh, AHCTF1 / RFU, TFRC / Fold change vs veh, TFRC / RFU, ZDHHC17 / Fold change vs veh, ZDHHC17 / RFU, NOM1 / Fold change vs veh, NOM1 / RFU, ARL8B / Fold change vs veh, ARL8B / RFU, ZBTB11 / Fold change vs veh, ZBTB11 / RFU, TAMM41 / Fold change vs veh, TAMM41 / RFU, KIAA1704 /// LOC100996395 / Fold change vs veh, KIAA1704 /// LOC100996395 / RFU, ING1 / Fold change vs veh, ING1 / RFU, TRMT61B / Fold change vs veh, TRMT61B / RFU, FUBP3 / Fold change vs veh, FUBP3 / RFU, TP53 / Fold change vs veh, TP53 / RFU, TNKS2 / Fold change vs veh, TNKS2 / RFU, ZFP14 / Fold change vs veh, ZFP14 / RFU, ACTR2 / Fold change vs veh, ACTR2 / RFU, PPP3R1 / Fold change vs veh, PPP3R1 / RFU, PIK3R1 / Fold change vs veh, PIK3R1 / RFU, HNRNPA1 / Fold change vs veh, HNRNPA1 / RFU, RNF170 / Fold change vs veh, RNF170 / RFU, ZNF28 / Fold change vs veh, ZNF28 / RFU, RNGTT / Fold change vs veh, RNGTT / RFU, OGT / Fold change vs veh, OGT / RFU, BRD1 / Fold change vs veh, BRD1 / RFU, MARS / Fold change vs veh, MARS / RFU, ZNF655 / Fold change vs veh, ZNF655 / RFU, FAHD1 / Fold change vs veh, FAHD1 / RFU, BDP1 / Fold change vs veh, BDP1 / RFU, LRRCC1 / Fold change vs veh, LRRCC1 / RFU, ARID1A / Fold change vs veh, ARID1A / RFU, ZNF146 / Fold change vs veh, ZNF146 / RFU, ZNF330 / Fold change vs veh, ZNF330 / RFU, GPN3 / Fold change vs veh, GPN3 / RFU, C9orf123 / Fold change vs veh, C9orf123 / RFU, N4BP2L2 / Fold change vs veh, N4BP2L2 / RFU, ARFIP1 / Fold change vs veh, ARFIP1 / RFU, FAM179B / Fold change vs veh, FAM179B / RFU, BCL10 / Fold change vs veh, BCL10 / RFU, UHRF1BP1L / Fold change vs veh, UHRF1BP1L / RFU, BET1 / Fold change vs veh, BET1 / RFU, CNOT2 / Fold change vs veh, CNOT2 / RFU, ZNF268 / Fold change vs veh, ZNF268 / Fold change vs veh, ZNF507 / RFU, DGCR2 / Fold change vs veh, DGCR2 / RFU, WDSUB1 / Fold change vs veh, WDSUB1 / Fold change vs veh, HSP90B1 /// MIR3652 / RFU, ADSS / Fold change vs veh, ADSS / RFU, GK / Fold change vs veh, GK / RFU, ZNF148 / Fold change vs veh, ZNF148 / RFU, TAF9 / Fold change vs veh, TAF9 / RFU, SLC1A5 / Fold change vs veh, SLC1A5 / RFU, SLMO2 / Fold change vs veh, SLMO2 / RFU, ABCC4 / Fold change vs veh, ABCC4 / RFU, LOC101060439 /// RAP1B / Fold change vs veh, LOC101060439 /// RAP1B / RFU, RFX7 / Fold change vs veh, RFX7 / RFU, GTPBP10 / Fold change vs veh, GTPBP10 / RFU, CNEP1R1 / Fold change vs veh, CNEP1R1 / RFU, BIVM-ERCC5 /// ERCC5 / Fold change vs veh, BIVM-ERCC5 /// ERCC5 / RFU, ILF3 / Fold change vs veh, ILF3 / RFU 11762660_at / Fold change /veh 11762660_at / RFU VCAN (11757783_s_at) / Fold change /veh VCAN (11757783_s_at) / RFU DDX43 (11728927_at) / Fold change /veh DDX43 (11728927_at) / RFU KRT8 (11758188_x_at) / Fold change /veh KRT8 (11758188_x_at) / RFU NKD1 (11759106_at) / Fold change /veh NKD1 (11759106_at) / RFU SRD5A1 (11742802_a_at) / Fold change /veh SRD5A1 (11742802_a_at) / RFU TPSAB1 /// TPSB2 (11721975_s_at) / Fold change /veh TPSAB1 /// TPSB2 (11721975_s_at) / RFU GSTM3 (11746129_a_at) / Fold change /veh GSTM3 (11746129_a_at) / RFU IL23R (11737362_x_at) / Fold change /veh IL23R (11737362_x_at) / RFU TMEM51 (11727254_a_at) / Fold change /veh TMEM51 (11727254_a_at) / RFU PIWIL2 (11732686_x_at) / Fold change /veh PIWIL2 (11732686_x_at) / RFU ORM1 (11744905_x_at) / Fold change /veh ORM1 (11744905_x_at) / RFU CCDC152 (11743942_at) / Fold change /veh CCDC152 (11743942_at) / RFU ECM1 (11717891_a_at) / Fold change /veh ECM1 (11717891_a_at) / RFU IL23R (11748794_a_at) / Fold change /veh IL23R (11748794_a_at) / RFU TNFAIP8L3 (11732012_x_at) / Fold change /veh TNFAIP8L3 (11732012_x_at) / RFU MBOAT4 (11741988_at) / Fold change /veh MBOAT4 (11741988_at) / RFU 11764193_at / Fold change /veh 11764193_at / RFU TMEM53 (11763286_at) / Fold change /veh TMEM53 (11763286_at) / RFU MAGEB2 (11727129_at) / Fold change /veh MAGEB2 (11727129_at) / RFU TMEM200A (11744735_a_at) / Fold change /veh TMEM200A (11744735_a_at) / RFU CCDC152 (11751479_a_at) / Fold change /veh CCDC152 (11751479_a_at) / RFU FAM211A (11726209_a_at) / Fold change /veh FAM211A (11726209_a_at) / RFU RGS16 (11746705_a_at) / Fold change /veh RGS16 (11746705_a_at) / RFU VCAN (11755009_s_at) / Fold change /veh VCAN (11755009_s_at) / RFU RHOB (11743442_s_at) / Fold change /veh RHOB (11743442_s_at) / RFU RGS16 (11720943_a_at) / Fold change /veh RGS16 (11720943_a_at) / RFU RGS16 (11720944_at) / Fold change /veh RGS16 (11720944_at) / RFU, VPS4B / Fold change vs veh, VPS4B / RFU, CREB1 / Fold change vs veh, CREB1 / RFU, DNAJC13 / Fold change vs veh, DNAJC13 / RFU, GNAQ / Fold change vs veh, GNAQ / RFU, CDK5R1 / Fold change vs veh, CDK5R1 / RFU, ZRANB3 / Fold change vs veh, ZRANB3 / RFU, CUL4A / Fold change vs veh, CUL4A / RFU, CCNY / Fold change vs veh, CCNY / RFU, UFL1 / Fold change vs veh, UFL1 / RFU, COG3 / Fold change vs veh, COG3 / RFU, DIAPH2 / Fold change vs veh, DIAPH2 / RFU, SKA2 / Fold change vs veh, SKA2 / RFU, AFF3 / Fold change vs veh, AFF3 / RFU, LMF1 / Fold change vs veh, LMF1 / RFU, IPO11 / Fold change vs veh, IPO11 / RFU, DFFB / Fold change vs veh, DFFB / RFU, FOXP1 / Fold change vs veh, FOXP1 / RFU, CARD8 / Fold change vs veh, CARD8 / RFU, STRN3 / Fold change vs veh, STRN3 / RFU, ADK / Fold change vs veh, ADK / RFU, RASSF2 / Fold change vs veh, RASSF2 / RFU, WIPF1 / Fold change vs veh, WIPF1 / RFU, LARP1B / Fold change vs veh, LARP1B / RFU, RASA1 / Fold change vs veh, RASA1 / RFU, RB1 / Fold change vs veh, RB1 / RFU, PPFIA1 / Fold change vs veh, PPFIA1 / RFU, MAT2A / Fold change vs veh, MAT2A / RFU, CCT5 / Fold change vs veh, CCT5 / RFU, WDR92 / Fold change vs veh, WDR92 / RFU, CUX1 / Fold change vs veh, CUX1 / RFU, TTC7A / Fold change vs veh, TTC7A / RFU, TMEM135 / Fold change vs veh, TMEM135 / RFU, DEPTOR / Fold change vs veh, DEPTOR / RFU, CPM / Fold change vs veh, CPM / RFU, DNAJB6 / Fold change vs veh, DNAJB6 / RFU, CACNA2D3 / Fold change vs veh, CACNA2D3 / RFU, DTX4 / Fold change vs veh, DTX4 / RFU, TFCP2 / Fold change vs veh, TFCP2 / RFU, GMCL1 /// GMCL1P1 / Fold change vs veh, GMCL1 /// GMCL1P1 / RFU, AEBP2 / Fold change vs veh, AEBP2 / RFU, SNHG1 /// SNORD22 /// SNORD25 /// SNORD26 /// SNORD27 /// SNORD28 /// SNORD29 /// SNORD31 / Fold change vs veh, SNHG1 /// SNORD22 /// SNORD25 /// SNORD26 /// SNORD27 /// SNORD28 /// SNORD29 /// SNORD31 / Fold change (Aza/veh), C12orf56 (ProbeSet 11735607_a_at) / Fold change (ACY-1035/veh), C12orf56 (ProbeSet 11735607_a_at) / Fold change (Aza/veh), FGFR1OP (ProbeSet 11751329_s_at) / Fold change (ACY-1035/veh), FGFR1OP (ProbeSet 11751329_s_at) / Fold change (Aza/veh), VPS36 (ProbeSet 11739960_a_at) / Fold change (ACY-1035/veh), VPS36 (ProbeSet 11739960_a_at) / RFU SYPL1 (11715823_x_at) / Fold change /veh SYPL1 (11715823_x_at) / RFU IGFBP7 (11715501_s_at) / Fold change /veh IGFBP7 (11715501_s_at) / RFU REEP3 (11722064_at) / Fold change /veh REEP3 (11722064_at) / RFU IGLL1 (11728026_x_at) / Fold change /veh IGLL1 (11728026_x_at): dose or concentration left out as unconfirmed", "conditions": "MV-4-11 cells, 48 hours"}
{"smiles": "Nc1ccc(-c2cccs2)cc1NC(=O)c1ccc2c(c1)cc(C1CC1)n2CCN1CCOCC1", "note": "[ACY-1035]", "values": [{"measurement": "RFU NR4A2 (11747474_a_at)", "result": 22.98, "unit": "RFU"}]}
